Columns and labels:
[1] = target: CDK12(aa686-1082)/cyclin K complex (Homo sapiens (Human), UniProt Q9NYV4); experiment: In vitro enzymatic inhibitory activity test, CDK12; type: biochemical; settings: Caliper mobility shift, 180 min at 27° C.
Experimental: (§1) CDK7/CyclinH was diluted in a test buffer solution (20 mM MES PH6.75, 0.01% Tween20, 50 ug/mL BSA, 6 mM MgCl2) to obtain a corresponding enzyme solution with a 2.4× concentration. CDK2/CyclinE1 was diluted in a test buffer solution (20 mM MES PH6.75, 0.01% Tween20, 50 ug/mL BSA, 6 mM MgCl2) to obtain a corresponding enzyme solution with a 2.4× concentration. CDK9/CyclinT1 was diluted in a test buffer solution (20 mM MES PH6.75, 0.01% Tween20, 50 ug/mL BSA, 10 mM MgCl2) to obtain a corresponding enzyme solution with a 2.4× concentration. CDK12/CyclinK was diluted in a test buffer solution (80 mM MES PH6.5, 0.01% Tween20, 50 ug/mL BSA, 10 mM MgCl2) to obtain a corresponding enzyme solution with a 2.4× concentration. The compounds were dissolved in dimethyl sulfoxide (DMSO) at a concentration of 10 mM. […] 2 ul of a test compound solution was mixed with 5 ul of enzyme solution. After incubating for 10 min, 5 ul of the mixed solution of the polypeptide substrate and ATP was added. After incubating at 27° C. for 180 min, 4 uL of EDTA with a 120 mM concentration was added to each sample to stop the reaction. […] A CDK9/cyclin TI complex (8 nM) and a “5-FAM-CDK9tide” peptide substrate (2 μM, synthetic fluorophore labeled peptide having the following sequence: 5-FAM-GSRTPMY-NH2, where 5-FAM was as defined above, and NH2 represented C-terminal amide) were used for testing the CDK9 inhibition. […] A CDK2/cyclin E1 complex (0.5 nM) and the “5-FAM-CDK7tide” (2 μM) as defined above were used for testing the CDK2 inhibition.
(§2) Electrophoretic separation was performed on Caliper EZ Reader II by means of a fluorogenic substrate and a phosphorylated product to analyze the reaction mixture. Data were calculated by using GraphPad Prism version 6.0. IC50 values were adjusted by means of a nonlinear regression model using a dose-response curve.

HCC70 cells = experiment: Cell bioactivity detection (CyQuant), HCC70; type: cell-based; settings: Homo sapiens, HCC70, 72 h, human breast cancer cells HCC70, 72 hours
Experimental: (§3) Trypsinization was performed on A2780 and HCC70 cells. Cell suspensions were respectively transferred to 15 mL of centrifuge tubes and centrifuged at 800 rpm for 5 min. The supernatant was discarded. Resuspension in a fresh culture medium (RPMI 1640+10% FBS) was performed. After counting, the cells were inoculated at 2000/well in a 384-well plate (50 φL of 1640+10% FBS culture medium was added to the 2nd line and the 23rd line of the 384-well plate, and 50 μL of DPBS was added to surrounding wells). Incubation in an incubator (37° C., 5% CO2) was performed overnight.
(§4) The compound was added to the well plate the next day. The compound had the highest concentration of 10 μM and was diluted at the ratio of 1:4 to form 9 concentrations. The positive compound Paclitaxel had the highest concentration of 1 μM and was diluted at the ratio of 1:3 to form 9 concentrations. The DMSO content of each well was unified to 0.2%. A cell plate was centrifuged at 800 rpm for 30 seconds. Incubation for 72 hours in an incubator (37° C., 5% CO2) was performed. On the fourth day, a Cyquant reagent (3×) was prepared according to kit instructions. Each 384-well plate was prepared in the following proportions: DPBS: 11.568 mL, CyQuant® Direct nucleic acid stain: 72 μL, CyQuant® Direct background suppressor: 360 ILL. The plates were uniformly mixed and placed for standby application at room temperature. The cell plate was taken out and placed at room temperature to be balanced for 30 min. 25 μL of Cyquant reagent (3×) was dispensed to the cells in each well of the 384-well plates by using a Multi-drop dispenser. Incubation at 37° C. for 60 or more minutes was performed. The plates were read by Acumen (Acumen was configured to have a 488 nm excitation wavelength). IC50 results were analyzed by XLFIT5 of the IDBS company.

CDK2/cyclin E1 complex = CDK2/cyclin E1 complex (Homo sapiens (Human), UniProt P24941); experiment: In vitro enzymatic inhibitory activity test, CDK2; type: biochemical; settings: Caliper mobility shift, 180 min at 27° C.
Experimental: CDK7/CyclinH was diluted in a test buffer solution (20 mM MES PH6.75, 0.01% Tween20, 50 ug/mL BSA, 6 mM MgCl2) to obtain a corresponding enzyme solution with a 2.4× concentration. CDK2/CyclinE1 was diluted in a test buffer solution (20 mM MES PH6.75, 0.01% Tween20, 50 ug/mL BSA, 6 mM MgCl2) to obtain a corresponding enzyme solution with a 2.4× concentration. CDK9/CyclinT1 was diluted in a test buffer solution (20 mM MES PH6.75, 0.01% Tween20, 50 ug/mL BSA, 10 mM MgCl2) to obtain a corresponding enzyme solution with a 2.4× concentration. CDK12/CyclinK was diluted in a test buffer solution (80 mM MES PH6.5, 0.01% Tween20, 50 ug/mL BSA, 10 mM MgCl2) to obtain a corresponding enzyme solution with a 2.4× concentration. […] 2 ul of a test compound solution was mixed with 5 ul of enzyme solution. After incubating for 10 min, 5 ul of the mixed solution of the polypeptide substrate and ATP was added. After incubating at 27° C. for 180 min, 4 uL of EDTA with a 120 mM concentration was added to each sample to stop the reaction. […] A CDK9/cyclin TI complex (8 nM) and a “5-FAM-CDK9tide” peptide substrate (2 μM, synthetic fluorophore labeled peptide having the following sequence: 5-FAM-GSRTPMY-NH2, where 5-FAM was as defined above, and NH2 represented C-terminal amide) were used for testing the CDK9 inhibition. […] A CDK2/cyclin E1 complex (0.5 nM) and the “5-FAM-CDK7tide” (2 μM) as defined above were used for testing the CDK2 inhibition.
as §2

CDK9/CyclinT1 = CDK9/CyclinT1 (Homo sapiens (Human), UniProt P50750); experiment: In vitro enzymatic inhibitory activity test, CDK9; type: biochemical; settings: Caliper mobility shift, 180 min at 27° C.
Experimental: as §1, §2

A2780 cells = experiment: Cell bioactivity detection (CyQuant), A2780; type: cell-based, human; settings: Homo sapiens, A2780, 72 h, ovarian carcinoma cells A2780, 72 hours
Experimental: as §3, §4

[2] = target: CDK7/cyclin H/MAT1 complex (Homo sapiens (Human), UniProt P50613); experiment: In vitro enzymatic inhibitory activity test, CDK7; type: biochemical; settings: Caliper mobility shift, 180 min at 27° C.
Experimental: as §1, §2

Chain of CDK7/cyclin H/MAT1 complex (P50613 whole entry, species assumed): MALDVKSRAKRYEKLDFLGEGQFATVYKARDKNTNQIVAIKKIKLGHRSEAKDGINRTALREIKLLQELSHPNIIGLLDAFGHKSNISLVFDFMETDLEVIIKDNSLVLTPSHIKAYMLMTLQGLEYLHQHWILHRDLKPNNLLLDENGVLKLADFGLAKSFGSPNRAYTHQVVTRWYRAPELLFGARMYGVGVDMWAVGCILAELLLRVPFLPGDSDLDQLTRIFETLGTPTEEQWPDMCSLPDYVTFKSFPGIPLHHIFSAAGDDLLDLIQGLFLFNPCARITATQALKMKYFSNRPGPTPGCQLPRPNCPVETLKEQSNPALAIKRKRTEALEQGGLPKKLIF
Chain of CDK7/cyclin H/MAT1 complex (P51946 whole entry partner, species assumed): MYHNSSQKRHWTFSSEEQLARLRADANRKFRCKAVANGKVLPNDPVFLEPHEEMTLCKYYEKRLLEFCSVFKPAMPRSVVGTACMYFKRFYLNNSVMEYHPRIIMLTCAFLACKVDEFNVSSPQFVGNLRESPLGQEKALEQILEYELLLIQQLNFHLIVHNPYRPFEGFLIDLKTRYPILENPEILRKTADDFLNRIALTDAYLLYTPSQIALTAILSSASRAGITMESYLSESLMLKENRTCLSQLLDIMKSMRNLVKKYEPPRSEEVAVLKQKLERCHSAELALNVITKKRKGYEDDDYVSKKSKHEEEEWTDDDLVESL
Chain of CDK7/cyclin H/MAT1 complex (P51948 whole entry partner, species assumed): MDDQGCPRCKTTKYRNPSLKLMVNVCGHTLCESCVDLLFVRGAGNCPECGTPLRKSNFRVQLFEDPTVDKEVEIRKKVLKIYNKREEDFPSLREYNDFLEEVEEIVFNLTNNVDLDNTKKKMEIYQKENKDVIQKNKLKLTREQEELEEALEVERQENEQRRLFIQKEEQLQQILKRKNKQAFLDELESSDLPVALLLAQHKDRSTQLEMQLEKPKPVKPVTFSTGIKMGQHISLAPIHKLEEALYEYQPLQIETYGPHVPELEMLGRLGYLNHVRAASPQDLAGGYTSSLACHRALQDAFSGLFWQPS
Chain of CDK12(aa686-1082)/cyclin K complex (Q9NYV4 686-1082, species assumed): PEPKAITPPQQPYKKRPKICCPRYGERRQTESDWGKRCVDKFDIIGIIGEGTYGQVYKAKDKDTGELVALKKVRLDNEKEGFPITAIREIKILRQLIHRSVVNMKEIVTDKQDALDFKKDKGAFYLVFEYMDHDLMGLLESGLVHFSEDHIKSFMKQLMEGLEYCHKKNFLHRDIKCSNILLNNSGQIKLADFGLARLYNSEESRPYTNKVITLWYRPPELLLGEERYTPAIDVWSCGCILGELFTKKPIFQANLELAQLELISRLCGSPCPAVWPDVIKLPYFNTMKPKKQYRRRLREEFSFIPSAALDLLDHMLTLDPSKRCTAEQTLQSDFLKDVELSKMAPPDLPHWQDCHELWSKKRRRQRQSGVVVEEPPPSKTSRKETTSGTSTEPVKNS
Chain of CDK12(aa686-1082)/cyclin K complex (O75909 whole entry partner, species assumed, the tested form may be a part): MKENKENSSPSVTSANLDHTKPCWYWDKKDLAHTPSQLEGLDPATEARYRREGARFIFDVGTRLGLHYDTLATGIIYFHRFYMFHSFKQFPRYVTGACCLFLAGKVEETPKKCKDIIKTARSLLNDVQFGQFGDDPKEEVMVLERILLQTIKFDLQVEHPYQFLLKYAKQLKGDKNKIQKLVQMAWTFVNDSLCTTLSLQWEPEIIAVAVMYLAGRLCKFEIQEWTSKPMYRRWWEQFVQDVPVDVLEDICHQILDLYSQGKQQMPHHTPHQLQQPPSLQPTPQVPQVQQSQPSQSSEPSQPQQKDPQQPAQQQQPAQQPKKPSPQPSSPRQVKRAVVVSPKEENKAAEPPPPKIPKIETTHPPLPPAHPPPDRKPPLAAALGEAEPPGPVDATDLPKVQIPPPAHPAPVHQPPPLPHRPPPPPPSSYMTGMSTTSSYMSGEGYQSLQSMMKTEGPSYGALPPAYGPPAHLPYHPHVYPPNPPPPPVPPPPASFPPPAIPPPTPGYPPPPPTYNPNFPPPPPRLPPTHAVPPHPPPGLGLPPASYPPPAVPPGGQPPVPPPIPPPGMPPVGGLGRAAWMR
Chain of CDK9/CyclinT1 (P50750 whole entry, species assumed): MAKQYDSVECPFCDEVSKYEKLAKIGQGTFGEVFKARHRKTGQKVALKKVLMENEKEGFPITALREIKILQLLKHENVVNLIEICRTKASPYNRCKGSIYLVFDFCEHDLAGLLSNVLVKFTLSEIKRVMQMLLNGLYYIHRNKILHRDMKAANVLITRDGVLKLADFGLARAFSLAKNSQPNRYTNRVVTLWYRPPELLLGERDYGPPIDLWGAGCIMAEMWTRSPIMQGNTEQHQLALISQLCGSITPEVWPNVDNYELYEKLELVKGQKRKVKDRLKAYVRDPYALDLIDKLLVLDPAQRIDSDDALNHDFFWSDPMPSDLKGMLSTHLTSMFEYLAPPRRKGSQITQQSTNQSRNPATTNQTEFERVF
Chain of CDK9/CyclinT1 (O60563 whole entry partner, species assumed): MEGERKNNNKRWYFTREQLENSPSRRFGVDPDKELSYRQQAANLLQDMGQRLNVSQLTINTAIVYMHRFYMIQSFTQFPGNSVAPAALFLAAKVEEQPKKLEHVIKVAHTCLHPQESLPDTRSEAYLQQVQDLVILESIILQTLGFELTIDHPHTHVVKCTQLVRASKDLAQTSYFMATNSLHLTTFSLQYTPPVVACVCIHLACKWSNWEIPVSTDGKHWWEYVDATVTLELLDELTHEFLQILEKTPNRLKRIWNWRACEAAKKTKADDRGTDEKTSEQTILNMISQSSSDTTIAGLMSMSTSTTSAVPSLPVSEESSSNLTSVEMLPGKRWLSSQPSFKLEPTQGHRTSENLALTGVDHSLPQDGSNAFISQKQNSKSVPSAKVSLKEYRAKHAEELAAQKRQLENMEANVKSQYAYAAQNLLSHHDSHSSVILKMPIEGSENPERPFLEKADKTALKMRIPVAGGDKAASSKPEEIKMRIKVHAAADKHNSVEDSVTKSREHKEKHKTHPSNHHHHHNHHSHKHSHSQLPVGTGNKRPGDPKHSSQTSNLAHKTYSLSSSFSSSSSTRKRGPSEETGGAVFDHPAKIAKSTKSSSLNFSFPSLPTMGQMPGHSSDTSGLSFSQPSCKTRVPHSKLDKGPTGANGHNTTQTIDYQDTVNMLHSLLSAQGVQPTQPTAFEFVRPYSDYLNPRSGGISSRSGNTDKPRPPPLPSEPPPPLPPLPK

IC50 [1] [nM]	IC50 (CDK2/cyclin E1 complex) [µM]	IC50 (CDK9/CyclinT1) [µM]	IC50 (A2780 cells) [nM]	IC50 [2] [nM]	SMILES	IC50 (HCC70 cells) [nM]
1630	5.48	4.25	212	20	FC(F)(F)c1cnc(N[C@H]2CCCNC2)nc1-c1c[nH]c2nc(N3CC4(CCCOC4)C3)ccc12 [Compound 17, (S)-4-(6-(6-oxa-2-azaspiro[3.5]nonan-2-yl)-1H-pyrrolo[2,3-b]pyridin-3-yl)-N-(piperidin-3-yl)-5-(trifluoromethyl)pyrimidine-2-amine]	102
2290	6.56	2.87	7.2	9.47	C[C@H]1COCCN1c1ccc2c(-c3nc(N[C@H]4CCCNC4)ncc3C(F)(F)F)c[nH]c2n1 [Compound 18, 4-(6-((S)-3-methylmorpholinyl)-1H-pyrrolo[2,3-b]pyridin-3-yl)-N—((S)-piperidin-3-yl)-5-(trifluoromethyl)pyrimidine-2-amine]	6.7
8720	> 10	> 10	185	159	C[C@@H]1COCCN1c1ccc2c(-c3nc(N[C@H]4CCCNC4)ncc3C(F)(F)F)c[nH]c2n1 [Compound 19, 4-(6-((R)-3-methylmorpholinyl)-1H-pyrrolo[2,3-b]pyridin-3-yl)-N—((S)-piperidin-3-yl)-5-(trifluoromethyl)pyrimidine-2-amine]	220
765	3.28	2.97	8.3	8.43	N#CC1CCN(c2ccc3c(-c4nc(N[C@H]5CCCNC5)ncc4C(F)(F)F)c[nH]c3n2)CC1 [Compound 20, (S)-1-(3-(2-(piperidine-3-amino)-5-(trifluoromethyl)pyrimidin-4-yl)-1H-pyrrolo[2,3-b]pyridin-6-yl)piperidine-4-nitrile]	13.7
818	4.33	2.98	19	8.81	CC1(C#N)CN(c2ccc3c(-c4nc(N[C@H]5CCCNC5)ncc4C(F)(F)F)c[nH]c3n2)C1 [Compound 21, (S)-3-methyl-1-(3-(2-(piperidine-3-amino)-5-(trifluoromethyl)pyrimidin-4-yl)-1H-pyrrolo[2,3-b]pyridin-6-yl)azetidine-3-formonitrile]	27.8

The next lines start with the compound.

SMILES	IC50 [1] [nM]	IC50 (CDK2/cyclin E1 complex) [µM]	IC50 (CDK9/CyclinT1) [µM]	IC50 (A2780 cells) [nM]	IC50 [2] [nM]	IC50 (HCC70 cells) [nM]
FC(F)(F)c1cnc(N[C@H]2CCCNC2)nc1-c1c[nH]c2nc(N3CCCC4(CCOCC4)C3)ccc12 [Compound 10, (S)-4-(6-(9-oxa-2-azaspiro[5.5]undecan-2-yl)-1H-pyrrolo[2,3-b]pyridin-3-yl)-N-(piperidin-3-yl)-5-(trifluoromethyl)pyrimidine-2-amine]	823	2.09	4.01	109	27	102
FC(F)(F)c1cnc(N[C@H]2CCCNC2)nc1-c1c[nH]c2nc(N3CC4(CCOC4)C3)ccc12 [Compound 11, (S)-4-(6-(6-oxa-2-azaspiro[3.4]octan-2-yl)-1H-pyrrolo[2,3-b]pyridin-3-yl)-N-(piperidin-3-yl)-5-(trifluoromethyl)pyrimidine-2-amine]	1950	6.45	4.23	41.2	27.8	48
C[C@@H]1OCC2(CCN(c3ccc4c(-c5nc(N[C@H]6CCCNC6)ncc5C(F)(F)F)c[nH]c4n3)CC2)[C@@H]1N [Compound 12, (3S,4S)-3-methyl-8-(3-(2-(((S)-piperidin-3-yl)amino)-5-(trifluoromethyl)pyrimidin-4-yl)-1H-pyrrol[2,3-b]pyridin-6-yl)-2-oxa-8-azaspiro[4.5]decan-4-amine]	1170	3.79	2.79	90.1	17.4	69
FC(F)(F)c1cnc(N[C@H]2CCCNC2)nc1-c1c[nH]c2nc(N3C[C@@H]4C[C@H]3CO4)ccc12 [Compound 13, 4-(6-((1S,4S)-2-oxa-5-azabicyclo[2.2.1]heptan-5-yl)-1H-pyrrolo[2,3-b]pyridin-3-yl)-N—((S)-piperidin-3-yl)-5-(trifluoromethyl)pyrimidine-2-amine]	2640	2.67	3.43	35.2	7.05	29
FC(F)(F)c1cnc(N[C@H]2CCCNC2)nc1-c1c[nH]c2nc(N3CC4(COC4)C3)ccc12 [Compound 14, (S)-4-(6-(2-oxa-6-azaspiro[3.3]heptan-6-yl)-1H-pyrrolo[2,3-b]pyridin-3-yl)-N-(piperidin-3-yl)-5-(trifluoromethyl)pyrimidine-2-amine]	555	3.29	1.67	11	7.11	24
FC(F)(F)c1cnc(N[C@H]2CCCNC2)nc1-c1c[nH]c2nc(N3CCC4(CC3)COC4)ccc12 [Compound 15, (S)-4-(6-(2-oxa-7-azaspiro[3.5]nonan-7-yl)-1H-pyrrolo[2,3-b]pyridin-3-yl)-N-(piperidin-3-yl)-5-(trifluoromethyl)pyrimidine-2-amine]	1120	4.15	3.32	10	16.5	12
FC(F)(F)c1cnc(N[C@H]2CCCNC2)nc1-c1c[nH]c2nc(N3CCC4(CCO4)CC3)ccc12 [Compound 16, (S)-4-(6-(1-oxa-7-azaspiro[3.5]nonan-7-yl)-1H-pyrrolo[2,3-b]pyridin-3-yl)-N-(piperidin-3-yl)-5-(trifluoromethyl)pyrimidine-2-amine]	1230	2.88	3.58	11	10.8	13

— patent US20240132489A1, “AROMATIC HETEROCYCLIC COMPOUND, PHARMACEUTICAL COMPOSITION, AND USE THEREOF” (GT APEIRON THERAPEUTICS LIMITED, priority 2020, published 2024)
